In the NIST ThermoML archive (doi:10.1016/j.jct.2004.07.024):
Numbers after ± are expanded uncertainties.

Assay: xn = mol fraction of the nth substance listed
Details: 101.33 kPa, Liquid

C=Cc1ccccc1 [styrene] + C[S+](C)[O-]
Details	mass density [kg/m3]
293.15 K, x1 = 0.062	1081.91 ± 0.31
293.15 K, x1 = 0.1289	1064.06 ± 0.31
293.15 K, x1 = 0.2169	1042.53 ± 0.3
293.15 K, x1 = 0.2956	1024.85 ± 0.31
293.15 K, x1 = 0.3596	1011.37 ± 0.31
293.15 K, x1 = 0.4103	1001.24 ± 0.32
293.15 K, x1 = 0.4596	991.74 ± 0.34
293.15 K, x1 = 0.5023	983.85 ± 0.36
293.15 K, x1 = 0.5689	972.01 ± 0.38
293.15 K, x1 = 0.626	962.31 ± 0.4
293.15 K, x1 = 0.7025	949.86 ± 0.43
293.15 K, x1 = 0.7865	936.88 ± 0.46
293.15 K, x1 = 0.8595	926.02 ± 0.48
293.15 K, x1 = 0.9312	915.7 ± 0.51
303.15 K, x1 = 0.0852	1066.12 ± 0.3
303.15 K, x1 = 0.1495	1049.28 ± 0.29
303.15 K, x1 = 0.2015	1036.5 ± 0.29
303.15 K, x1 = 0.2695	1020.82 ± 0.3
303.15 K, x1 = 0.3351	1006.61 ± 0.3
303.15 K, x1 = 0.4055	992.33 ± 0.32
303.15 K, x1 = 0.4824	977.63 ± 0.35
303.15 K, x1 = 0.5588	963.89 ± 0.38
303.15 K, x1 = 0.6196	953.53 ± 0.4
303.15 K, x1 = 0.6726	944.85 ± 0.42
303.15 K, x1 = 0.7369	934.68 ± 0.45
303.15 K, x1 = 0.8069	924.05 ± 0.47
303.15 K, x1 = 0.8756	913.99 ± 0.49
303.15 K, x1 = 0.9458	904.01 ± 0.52
313.15 K, x1 = 0.0665	1060.82 ± 0.29
313.15 K, x1 = 0.1856	1029.88 ± 0.28
313.15 K, x1 = 0.2581	1012.95 ± 0.28
313.15 K, x1 = 0.3296	997.38 ± 0.3
313.15 K, x1 = 0.3895	985.13 ± 0.32
313.15 K, x1 = 0.4469	973.98 ± 0.34
313.15 K, x1 = 0.5132	961.75 ± 0.37
313.15 K, x1 = 0.5958	947.37 ± 0.4
313.15 K, x1 = 0.6553	937.53 ± 0.42
313.15 K, x1 = 0.7125	928.47 ± 0.44
313.15 K, x1 = 0.7665	920.19 ± 0.46
313.15 K, x1 = 0.8269	911.23 ± 0.48
313.15 K, x1 = 0.8801	903.57 ± 0.5
313.15 K, x1 = 0.9485	893.98 ± 0.52
323.15 K, x1 = 0.0653	1050.77 ± 0.27
323.15 K, x1 = 0.1856	1019.46 ± 0.27
323.15 K, x1 = 0.2513	1004.06 ± 0.27
323.15 K, x1 = 0.3257	987.81 ± 0.3
323.15 K, x1 = 0.3969	973.33 ± 0.33
323.15 K, x1 = 0.4582	961.55 ± 0.35
323.15 K, x1 = 0.5296	948.61 ± 0.38
323.15 K, x1 = 0.5701	941.56 ± 0.4
323.15 K, x1 = 0.6352	930.72 ± 0.42
323.15 K, x1 = 0.6925	921.57 ± 0.44
323.15 K, x1 = 0.7468	913.21 ± 0.46
323.15 K, x1 = 0.8169	902.83 ± 0.48
323.15 K, x1 = 0.8825	893.48 ± 0.51
323.15 K, x1 = 0.9555	883.37 ± 0.53
333.15 K, x1 = 0.0626	1041.08 ± 0.26
333.15 K, x1 = 0.1745	1011.71 ± 0.26
333.15 K, x1 = 0.2469	994.63 ± 0.27
333.15 K, x1 = 0.2963	983.69 ± 0.29
333.15 K, x1 = 0.3458	973.27 ± 0.31
333.15 K, x1 = 0.3899	964.37 ± 0.33
333.15 K, x1 = 0.4525	952.34 ± 0.36
333.15 K, x1 = 0.5252	939.14 ± 0.38
333.15 K, x1 = 0.6053	925.5 ± 0.41
333.15 K, x1 = 0.6852	912.68 ± 0.44
333.15 K, x1 = 0.7562	901.86 ± 0.47
333.15 K, x1 = 0.8362	890.23 ± 0.5
333.15 K, x1 = 0.8826	883.72 ± 0.51
333.15 K, x1 = 0.9332	876.75 ± 0.53
343.15 K, x1 = 0.0866	1023.99 ± 0.25
343.15 K, x1 = 0.1762	1000.88 ± 0.25
343.15 K, x1 = 0.2459	984.45 ± 0.28
343.15 K, x1 = 0.2856	975.61 ± 0.29
343.15 K, x1 = 0.3595	960.11 ± 0.33
343.15 K, x1 = 0.4041	951.25 ± 0.34
343.15 K, x1 = 0.4896	935.26 ± 0.38
343.15 K, x1 = 0.5695	921.33 ± 0.41
343.15 K, x1 = 0.6254	912.1 ± 0.43
343.15 K, x1 = 0.6925	901.53 ± 0.45
343.15 K, x1 = 0.7569	891.83 ± 0.47
343.15 K, x1 = 0.8042	884.96 ± 0.49
343.15 K, x1 = 0.8685	875.91 ± 0.51
343.15 K, x1 = 0.9344	866.93 ± 0.53
353.15 K, x1 = 0.0659	1019.29 ± 0.24
353.15 K, x1 = 0.1289	1002.33 ± 0.24
353.15 K, x1 = 0.1865	987.92 ± 0.26
353.15 K, x1 = 0.2415	975.04 ± 0.28
353.15 K, x1 = 0.3063	960.8 ± 0.31
353.15 K, x1 = 0.3895	943.8 ± 0.35
353.15 K, x1 = 0.4589	930.59 ± 0.37
353.15 K, x1 = 0.5362	916.84 ± 0.4
353.15 K, x1 = 0.6089	904.68 ± 0.43
353.15 K, x1 = 0.6812	893.25 ± 0.46
353.15 K, x1 = 0.7462	883.47 ± 0.48
353.15 K, x1 = 0.8126	873.91 ± 0.5
353.15 K, x1 = 0.8865	863.68 ± 0.52
353.15 K, x1 = 0.9522	854.91 ± 0.55
